According to patent US6949566B2, “Thiazole and oxazole derivatives” (Shionogi & Co. Ltd., priority 2000, dated 2005):

Tests used:
Type in all cases: biochemical
MMP-12 = biological target: T1, MMP-12 (Homo sapiens, UniProt P39900); experiment: Assay for inhibitory activities on MMPs (fluorogenic peptide substrate), MMP-12; settings: catalytic domain 100Phe-263Gly; substrate MOCAc-Pro-Leu-Gly-Leu-A2Pr(DNP)-Ala-Arg-NH2
T1 construct: catalytic domain(^100Phe˜^263Gly) was amplified with RT-PCR; His-tag; enterokinase digestion-site; made in house; host or cells: Escherichia coli
T1 sequence (P39900 100-263): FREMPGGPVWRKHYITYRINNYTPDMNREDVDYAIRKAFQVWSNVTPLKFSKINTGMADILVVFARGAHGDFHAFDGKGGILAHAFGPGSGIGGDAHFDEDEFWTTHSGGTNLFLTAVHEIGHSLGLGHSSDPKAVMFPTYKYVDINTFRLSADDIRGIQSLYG
Procedure: (§1) In regard to MMP-12, catalytic domain(^100Phe˜^263Gly) was amplified with RT-PCR from Human Placenta Total RNA. This was cloned in Escherichia. coli expression vector pTrc99AHE inserted with His-tag sequence and enterokinase digestion-site, induced and expressed by IPTG (Isopropyl-β-D-thiogalactopyranoside) and expressed in a insoluble fraction. Isolation of MMP-12 from an insoluble fraction was carried out by dissolving in modifier (6M urea) by a usual method and purification with metal chelate chromatography (Ni Chelateing Sepharose). And then removing modifier (6M urea) with dialysis and refolding of the enzyme spontaneously gave activated MMP-12.
(§2) The enzymatic activity on MMPs was analyzed by the method described in “C. Graham Knight, Frances Willenbrock and Gillian Murphy: A novel coumarin-labelled peptide for sensitive continuous assays of the matrix metalloproteinases: FEBS LETT., 296, (1992), 263-266”. The substrate MOCAc-Pro-Leu-Gly-Leu-A2Pr(DNP)-Ala-Arg-NH2 was purchased from Peptide Institute, Inc., Osaka, Japan. The measurement of the inhibitory activities (IC50) was carried out by the following four methods;
(§3) (A) Reaction with substrate, enzyme (MMPs) and inhibitor
(§4) (B) Reaction with substrate and inhibitor, without enzyme
(§5) (C) Reaction with substrate and enzyme (MMPs), without inhibitor
(§6) (D) Reaction with substrate only
(§7) IC50 values were calculated by using the following formula and each fluorescence values of above four methods (A to D). % inhibition={1−(A−B)/(C−D)}×100 IC50 means the concentration required to inhibit 50% of the enzyme activity.

MMP-2 = biological target: T2, MMP-2 (Homo sapiens, UniProt P08253); experiment: Assay for inhibitory activities on MMPs (fluorogenic peptide substrate), MMP-2; settings: purchased MMP-2; substrate MOCAc-Pro-Leu-Gly-Leu-A2Pr(DNP)-Ala-Arg-NH2
T2 construct: purchased Calbiochem-Novabiochem International, Inc
T2 sequence (P08253 110-660): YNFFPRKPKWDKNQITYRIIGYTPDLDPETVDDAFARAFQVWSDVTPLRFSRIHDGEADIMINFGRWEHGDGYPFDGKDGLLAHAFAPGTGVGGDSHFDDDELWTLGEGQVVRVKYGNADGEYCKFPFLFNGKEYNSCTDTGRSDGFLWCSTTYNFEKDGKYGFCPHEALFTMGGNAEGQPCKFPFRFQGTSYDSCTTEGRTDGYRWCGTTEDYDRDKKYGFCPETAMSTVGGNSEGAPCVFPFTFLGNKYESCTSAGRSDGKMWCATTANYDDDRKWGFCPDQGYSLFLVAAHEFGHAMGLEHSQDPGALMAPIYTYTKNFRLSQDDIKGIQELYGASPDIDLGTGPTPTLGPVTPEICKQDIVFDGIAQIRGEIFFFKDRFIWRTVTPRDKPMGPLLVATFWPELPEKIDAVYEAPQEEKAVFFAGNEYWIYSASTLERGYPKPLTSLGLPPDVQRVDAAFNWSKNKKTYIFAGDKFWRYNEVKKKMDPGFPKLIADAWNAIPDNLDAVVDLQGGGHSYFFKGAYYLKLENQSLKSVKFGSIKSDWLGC
Procedure: MMP-2 was purchased from Calbiochem-Novabiochem International, Inc.
as §2, §3, §4, §5, §6, §7

MMP-8 = biological target: T3, MMP-8 (Homo sapiens, UniProt P22894); experiment: Assay for inhibitory activities on MMPs (fluorogenic peptide substrate), MMP-8; settings: catalytic domain 99Phe-262Gly; substrate MOCAc-Pro-Leu-Gly-Leu-A2Pr(DNP)-Ala-Arg-NH2
T3 construct: catalytic domain (^99Phe˜^262Gly) was amplified with PCR; His-tag; enterokinase digestion-site; made in house; host or cells: Escherichia coli
T3 sequence (P22894 99-262): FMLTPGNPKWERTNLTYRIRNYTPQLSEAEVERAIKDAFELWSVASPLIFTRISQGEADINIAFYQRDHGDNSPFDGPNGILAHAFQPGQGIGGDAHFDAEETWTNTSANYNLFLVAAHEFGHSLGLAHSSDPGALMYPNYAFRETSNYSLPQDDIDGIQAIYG
From the text: In regard to MMP-8, catalytic domain (^99Phe˜^262Gly) was amplified with PCR using commercial available Human Bone Marrow cDNA. This was cloned in Escherichia. coli expression vector pTrc99AHE inserted with His-tag sequence and enterokinase digestion-site, induced and expressed by IPTG (Isopropyl-β-D-thiogalactopyranoside) and expressed in a insoluble fraction (Thau F. Ho, M. Walid Qoronfleh, Robert C. Wahl, Trica A. Pulvino, Karen J. Vavra, Joe Falvo, Tracey M. Banks, Patricia G. Brake and Richard B. Ciccarelli: Gene expression, purification and characterization of recombinant human neutrophil collagenase. Gene 146, (1994) 297-301, Prepared by the a improved method of this material). Isolation of MMP-8 from an insoluble fraction was carried out by dissolving in modifier (6M urea) by a usual method and purification with metal chelate chromatography. And then removing modifier (6M urea) with dialysis and refolding of the enzyme spontaneously gave activated MMP-8.
as §2, §3, §4, §5, §6, §7

MMP-9 = biological target: T4, MMP-9 (Homo sapiens, UniProt P14780); experiment: Assay for inhibitory activities on MMPs (fluorogenic peptide substrate), MMP-9; settings: MMP-9 from HT1080 cells, activated by TPCK-Trypsin; substrate MOCAc-Pro-Leu-Gly-Leu-A2Pr(DNP)-Ala-Arg-NH2
T4 construct: endogenous in cells; host or cells: HT1080 human fibrosarcoma cells, TPA-stimulated; enzyme purified from conditioned medium
T4 sequence (P14780 107-707 limits assumed): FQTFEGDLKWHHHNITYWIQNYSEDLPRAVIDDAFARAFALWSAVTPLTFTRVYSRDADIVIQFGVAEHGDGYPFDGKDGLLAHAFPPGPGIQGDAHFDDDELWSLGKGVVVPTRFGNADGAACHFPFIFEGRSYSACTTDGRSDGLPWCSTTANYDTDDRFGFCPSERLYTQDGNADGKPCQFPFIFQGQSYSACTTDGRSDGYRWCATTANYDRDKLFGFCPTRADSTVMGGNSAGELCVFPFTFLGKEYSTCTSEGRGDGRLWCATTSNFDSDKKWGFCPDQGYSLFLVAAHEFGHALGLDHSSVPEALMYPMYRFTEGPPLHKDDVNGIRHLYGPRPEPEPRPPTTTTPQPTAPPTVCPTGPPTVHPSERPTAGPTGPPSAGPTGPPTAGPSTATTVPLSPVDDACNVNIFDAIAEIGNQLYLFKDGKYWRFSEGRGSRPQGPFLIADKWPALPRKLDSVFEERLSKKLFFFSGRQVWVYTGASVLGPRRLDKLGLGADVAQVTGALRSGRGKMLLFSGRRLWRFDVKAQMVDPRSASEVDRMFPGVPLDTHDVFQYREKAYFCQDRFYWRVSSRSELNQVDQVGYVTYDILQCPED
From the text: MMP-9 was isolated and purified by procedures described in as follows: Yasunori Okada, Yukio Gonoji, Katsumi Naka, Katsuro Tomita, Isao Nakanishi, Kazushi Iwata, Kyoko Yamashita, and Taro Hayakawa: Matrix metalloproteinase 9 (92-kDa gelatinase/type IV collagenase) from HT1080 human fibrosarcoma cells. Purification and activation of the precursor and enzymic properties J. Biol. Chem., 1992, 267 21712-21719, in combination with others: 1)Yasunori Okada, Tatsuhisa Morodomi, Jan J, Enghild, ko Suzuki, Atsushi Yasui, Isao Nakanishi, Guy Salvesen and Hideaki Nagase: Matrix metalloproteinase 2 from human rheumatoid synovial fibroblasts. Purification and activation of the precursor and enzymic properties. Eur. J. Biochem. 1990, 194 721-730; 2)Robin V Ward, Rosalind M Hembry, John J Reynolds and Gillian Murphy: The purification of tissue inhibitor of metalloproteinase-2 from its 72 kDa progelatinase complex. Biochem. J. 1991 278 179-187. In detail, human fibrosarcoma ATCC HT1080 cell line was cultured to confluent in Dulbecco's Modified Medium (DMEM) containing 10% fetal-calf serum at 37° C. for 48 hours. Subsequently, the medium of confluent culture was changed to serum-free DMEM medium. To obtain MMP-9, Phorbol-12-myristate-13-acetate (TPA) must be added to this serum-free DMEM medium at a concentration of 50 ng/ml. The TPA treated medium was centrifuged at 3000 rpm for 15 min and the supernatant was concentrated to 450 ml by a Toyo-Roshi UP-20 apparatus with an ultrafiltration membrane. Then, proMMP-9 in this concentrated solution was purified by using columns of Gelatin-Sepharose and Concanavalin A-Sepharose. The pool containing proMMP-9 was dialyzed, concentrated (Toyo-Roshi UP-20) and applied to columns of Sephacryl S-200 and Green A matrix for the separation from TIMPs. The obtained proMMP-9 fraction was activated by TPCK-Trypsin (Final conc. 3 μg/501 μl React Mix.).
as §2, §3, §4, §5, §6, §7

MMP-13 = biological target: T5, MMP-13 (Homo sapiens, UniProt P45452); experiment: Assay for inhibitory activities on MMPs (fluorogenic peptide substrate), MMP-13; settings: catalytic domain 104Tyr-267Gly; substrate MOCAc-Pro-Leu-Gly-Leu-A2Pr(DNP)-Ala-Arg-NH2
T5 construct: catalytic domain (^104Tyr˜^267Gly) was amplified with RT-PCR; His-tag; enterokinase digestion-site; made in house; host or cells: Escherichia coli
Procedure: as §1, with “MMP-13, mRNA was prepared from carcinoma cell SW1353 derived from human cartilage stimulate by IL-1, TNF and” for “MMP-12,”, “domain (^104Tyr˜^267Gly)” for “domain(^100Phe˜^263Gly)”, “RT-PCR.” for “RT-PCR from Human Placenta Total RNA.”, “MMP-13” for “MMP-12”, “dialyze” for “dialysis”, “MMP-13.” for “MMP-12.”
as §2, §3, §4, §5, §6, §7

SMILES	IC50 (MMP-12) [nM]	IC50 (MMP-2) [nM]	IC50 (MMP-8) [nM]	IC50 (MMP-9) [nM]	IC50 (MMP-13) [nM]
COc1ccc(-c2cnc(-c3ccc(S(=O)(=O)N[C@H](Cc4ccccc4)C(=O)O)cc3)o2)cc1 [Compound A-14]	1.88	2.66	7.07	174	5.51
O=C(O)[C@H](Cc1ccccc1)NS(=O)(=O)c1ccc(-c2ncc(-c3ccc(Cl)cc3)o2)cc1 [Compound A-16]	26.2	265	–	758	774
O=C(O)[C@@H](Cc1ccccc1)NS(=O)(=O)c1ccc(-c2ncc(-c3ccc(F)cc3)o2)cc1 [Compound A-19]	7.71	14.4	113	247	113
CC(C)[C@H](NS(=O)(=O)c1ccc(-c2ncc(-c3ccccc3)o2)cc1)C(=O)O [Compound A-22]	2.69	7.84	53.3	144	5.31
CC(C)[C@H](NS(=O)(=O)c1ccc(-c2ncc(-c3ccc(Cl)cc3)o2)cc1)C(=O)O [Compound A-24]	10	670	337	2370	678
CC(C)C[C@@H](NS(=O)(=O)c1ccc(-c2ncc(-c3ccc(Cl)cc3)o2)cc1)C(=O)O [Compound A-30]	11.4	44.4	320	502	226
CSCC[C@@H](NS(=O)(=O)c1ccc(-c2ncc(-c3ccc(Cl)cc3)o2)cc1)C(=O)O [Compound A-36]	2.98	16.3	127	226	140
CC(C)[C@@H](NS(=O)(=O)c1ccc(-c2ncc(-c3ccc4ccccc4c3)o2)cc1)C(=O)O [Compound A-50]	0.699	4.86	146	88.6	11.9
CC(C)[C@@H](NS(=O)(=O)c1ccc(-c2ncc(-c3ccccc3)s2)cc1)C(=O)O [Compound B-2]	2.92	1.83	15.1	13.8	14.5
CC(C)[C@H](NS(=O)(=O)c1ccc(-c2ncc(-c3ccccc3)s2)cc1)C(=O)O [Compound B-3]	3.16	7.45	18.9	70.5	15

Second part, the compound after the results:

IC50 (MMP-12) [nM]	IC50 (MMP-2) [nM]	IC50 (MMP-8) [nM]	IC50 (MMP-9) [nM]	IC50 (MMP-13) [nM]	SMILES
28.4	–	–	–	–	C[C@H](NS(=O)(=O)c1ccc(-c2ncc(-c3ccc(Cl)cc3)o2)cc1)C(=O)O [Compound A-5]
12.5	9.71	233	368	234	C[C@@H](NS(=O)(=O)c1ccc(-c2ncc(-c3ccc(F)cc3)o2)cc1)C(=O)O [Compound A-6]
2.78	3.37	25.2	218	22.6	COc1ccc(-c2cnc(-c3ccc(S(=O)(=O)N[C@H](C)C(=O)O)cc3)o2)cc1 [Compound A-8]
27.3	287	266	9320	433	COc1ccc(-c2cnc(-c3ccc(S(=O)(=O)N[C@@H](C)C(=O)O)cc3)o2)cc1 [Compound A-9]
2.42	5.46	97.4	135	59.2	C[C@@H](NS(=O)(=O)c1ccc(-c2ncc(-c3ccc(Br)cc3)o2)cc1)C(=O)O [Compound A-10]
7.48	12.2	75.9	179	140	CC(C)[C@@H](NS(=O)(=O)c1ccc(-c2ncc(-c3ccc(F)cc3)o2)cc1)C(=O)O [Compound A-25]
40.2	514	569	1810	–	CC(C)[C@H](NS(=O)(=O)c1ccc(-c2ncc(-c3ccc(F)cc3)o2)cc1)C(=O)O [Compound A-26]
1.55	6.08	57.3	67.9	54.5	CC(C)[C@@H](NS(=O)(=O)c1ccc(-c2ncc(-c3ccc(Br)cc3)o2)cc1)C(=O)O [Compound A-27]
5.05	10.9	26.1	483	44.8	COc1ccc(-c2cnc(-c3ccc(S(=O)(=O)N[C@H](CC(C)C)C(=O)O)cc3)o2)cc1 [Compound A-28]
2.25	7.16	279	157	19	C[C@@H](NS(=O)(=O)c1ccc(-c2ncc(-c3ccc4ccccc4c3)o2)cc1)C(=O)O [Compound A-46]
